Data from article PMC6271893, “In Vitro Antioxidant and Cytotoxic Activity of Some Synthetic Riparin-Derived Compounds” (Molecules, 2014).
Values after ≈ are worked out from the molar mass of the structure shown. Marks after values point to notes of the source that are not given here.

system: not listed separately; test: Scavenging activity of nitric oxide (nitrite production induced by SNP, Griess reaction); details: 1 μg/mL
Procedure: (§1) For the in vitro antioxidant tests the samples were emulsified in 0.05% Tween 80 dissolved in saline 0.9% (used as the vehicle) and tested at concentrations of 1, 5, 10, 25 and 100 µg/mL. The samples for the cytotoxicity tests were diluted in pure and sterile DMSO and tested at concentrations of 25 µg/mL.
Nitric oxide was generated from spontaneous decomposition of sodium nitroprusside in 20 mM phosphate buffer (pH 7.4). Once generated, NO interacts with oxygen to produce nitrite ions, which are measured by the Griess reaction. The reaction mixture (1 mL) containing 10 mM sodium nitroprusside (SNP) in phosphate buffer and the riparins at various concentrations of 1, 5, 10, 25 and 100 µg/mL were incubated at 37 °C for 1 h. A 0.5 mL aliquot was taken and homogenized with 0.5 mL Griess reagent. The absorbance of chromophore was measured at 540 nm. Percent inhibition of generated nitric oxide was measured by comparing the absorbance values of negative controls (only 10 mM sodium nitroprusside and vehicle) to assay preparations. Results were expressed as percentage of nitrite formed by SNP alone.

| SMILES | Nitrite Production (% induced by SNP) |
| --- | --- |
| O=C(NCCc1ccccc1)c1ccccc1O [Rip-C, 2-Hydroxy-N-phenethylbenzamide] | 69.3 ± 1.07 ^a % |

same assay, conditions: 5 μg/mL

| SMILES | Nitrite Production (% induced by SNP) |
| --- | --- |
| O=C(NCCc1ccccc1)c1ccccc1O [Rip-C, 2-Hydroxy-N-phenethylbenzamide] | 34.9 ± 0.23 ^a % |

same assay, conditions: 10 μg/mL

| SMILES | Nitrite Production (% induced by SNP) |
| --- | --- |
| O=C(NCCc1ccccc1)c1ccccc1O [Rip-C, 2-Hydroxy-N-phenethylbenzamide] | 22.9 ± 1.31 ^a % |

same assay, conditions: 25 μg/mL

| SMILES | Nitrite Production (% induced by SNP) |
| --- | --- |
| O=C(NCCc1ccccc1)c1ccccc1O [Rip-C, 2-Hydroxy-N-phenethylbenzamide] | 19.8 ± 0.83 ^a % |

same assay, conditions: 100 μg/mL

| SMILES | Nitrite Production (% induced by SNP) |
| --- | --- |
| O=C(NCCc1ccccc1)c1ccccc1O [Rip-C, 2-Hydroxy-N-phenethylbenzamide] | 16.5 ± 1.44 ^a % |

same assay, conditions: nitrite formation

| SMILES | IC50 Nitrite |
| --- | --- |
| O=C(NCCc1ccccc1)c1ccccc1O [Rip-C, 2-Hydroxy-N-phenethylbenzamide] | 0.7240 µg/mL (≈ 3 µM) |

system: not listed separately; test: Hydroxyl radical scavenging activity (2-deoxyribose degradation, Fenton reaction); details: 1 μg/mL
Procedure: as §1
The formation of OH radicals from Fenton reagents was quantified using the condensation product of the 2-deoxyribose oxidative degradation product, malonaldehyde, with 2-thiobarbituric acid (TBA). Briefly, typical reactions were started by the addition of Fe^2+ (FeSO4 6 mM final concentration) to solutions containing 5 mM 2-deoxyribose, 100 mM H2O2 and 20 mM phosphate buffer (pH 7.2). In order to determine the antioxidant activity of the riparins against the hydroxyl radical, individual tests were performed on each one of the six substances, in which different concentrations of the riparins were added to the system before Fe^2+ addition (Rip-A; Rip-B; Rip-C; Rip-D; Rip-E and Rip-F). Reactions were carried out for 15 min at room temperature and were quenched by the addition of phosphoric acid 4% (v/v), followed by TBA 1% (thiobarbituric acid, v/v in 50 μL NaOH). The solutions were boiled for 15 min to 95 °C and then cooled at room temperature. The absorbance was measured at 532 nm and the results were expressed as MDA equivalents formed by Fe^2+ and H2O2 [25].

| SMILES | 2-Deoxyribose degradation (%) |
| --- | --- |
| O=C(NCCc1ccccc1)c1ccccc1O [Rip-C, 2-Hydroxy-N-phenethylbenzamide] | 95.5 ± 1.30 ^a % |

same assay, conditions: 5 μg/mL

| SMILES | 2-Deoxyribose degradation (%) |
| --- | --- |
| O=C(NCCc1ccccc1)c1ccccc1O [Rip-C, 2-Hydroxy-N-phenethylbenzamide] | 80.9 ± 1.29 ^a % |

same assay, conditions: 10 μg/mL

| SMILES | 2-Deoxyribose degradation (%) |
| --- | --- |
| O=C(NCCc1ccccc1)c1ccccc1O [Rip-C, 2-Hydroxy-N-phenethylbenzamide] | 58.7 ± 1.37 ^a % |

same assay, conditions: 25 μg/mL

| SMILES | 2-Deoxyribose degradation (%) |
| --- | --- |
| O=C(NCCc1ccccc1)c1ccccc1O [Rip-C, 2-Hydroxy-N-phenethylbenzamide] | 52.1 ± 0.13 ^a % |

same assay, conditions: 100 μg/mL

| SMILES | 2-Deoxyribose degradation (%) |
| --- | --- |
| O=C(NCCc1ccccc1)c1ccccc1O [Rip-C, 2-Hydroxy-N-phenethylbenzamide] | 46.7 ± 0.35 ^a % |

same assay, conditions: hydroxyl radical content

| SMILES | IC50 OH radical |
| --- | --- |
| O=C(NCCc1ccccc1)c1ccccc1O [Rip-C, 2-Hydroxy-N-phenethylbenzamide] | 0.9516 µg/mL (≈ 3.94 µM) |

system: not listed separately; test: Antioxidant potential against the formation of TBARS (AAPH-induced lipid peroxidation of egg yolk homogenate); details: 1 μg/mL
Procedure: as §1
The TBARS assay was employed to quantify lipid peroxidation and an adapted TBARS method was used to measure the antioxidant capacity of the riparins (Rip-A, -B, -C, -D, -E and -F) using egg yolk homogenate as lipid rich substrate. Egg yolk was homogenized (1% w/v) in 20 mM phosphate buffer (pH 7.4), 1 mL of homogenate was sonicated and then homogenized with 0.1 mL of the samples at concentrations of 1, 5, 10, 25 and 100 µg/mL. Lipid peroxidation was induced by the addition of 0.1 mL of 2,2'-azobis(2-methylpropionamidine) dihydrochloride solution (AAPH; 0.12 M). Control was evaluated with only the vehicle. Reactions were carried out for 15 minutes at 37 °C. After cooling, samples (0.5 mL) were centrifuged with 0.5 mL of trichloroacetic acid (15%) at 1,200 ×g for 10 min. An aliquot of 0.5 mL from supernatant was mixed with 0.5 mL TBA (0.67%) and heated at 95 °C for 30 min. After cooling, sample absorbance was measured using a spectrophotometer at 532 nm. The results were expressed as percentage of TBARS formed by AAPH alone (induced control).

| SMILES | TBARS levels (% AAPH) |
| --- | --- |
| O=C(NCCc1ccccc1)c1ccccc1O [Rip-C, 2-Hydroxy-N-phenethylbenzamide] | 39.3 ± 0.60 ^a % |

same assay, conditions: 5 μg/mL

| SMILES | TBARS levels (% AAPH) |
| --- | --- |
| O=C(NCCc1ccccc1)c1ccccc1O [Rip-C, 2-Hydroxy-N-phenethylbenzamide] | 38.8 ± 1.07 ^a % |

same assay, conditions: 10 μg/mL

| SMILES | TBARS levels (% AAPH) |
| --- | --- |
| O=C(NCCc1ccccc1)c1ccccc1O [Rip-C, 2-Hydroxy-N-phenethylbenzamide] | 34.3 ± 0.92 ^a % |

same assay, conditions: 25 μg/mL

| SMILES | TBARS levels (% AAPH) |
| --- | --- |
| O=C(NCCc1ccccc1)c1ccccc1O [Rip-C, 2-Hydroxy-N-phenethylbenzamide] | 29.5 ± 1.91 ^a % |

same assay, conditions: 100 μg/mL

| SMILES | TBARS levels (% AAPH) |
| --- | --- |
| O=C(NCCc1ccccc1)c1ccccc1O [Rip-C, 2-Hydroxy-N-phenethylbenzamide] | 25.7 ± 2.62 ^a % |

same assay, conditions: TBARS production

| SMILES | IC50 TBARS |
| --- | --- |
| O=C(NCCc1ccccc1)c1ccccc1O [Rip-C, 2-Hydroxy-N-phenethylbenzamide] | 0.8971 µg/mL (≈ 3.72 µM) |

system: HEP-2 (laryngeal carcinoma); test: Cytotoxicity against tumor cell lines (MTT); assay type: cell-based; details: Homo sapiens, 72 h, 95% confidence interval in brackets, read-out: IC50 values and confidence intervals, HEP-2
Procedure: (§2) Cells were maintained at 37 °C with 5% CO2 in RPMI 1640 (Himedia^TM, Mumbai, India) or DMEM medium (Gibco^TM, Grand Island, NY, USA) supplemented with 2 mM glutamine, 100 U/mL penicillin, 100 μg/mL streptomycin. The antiproliferative activities of riparins were evaluated in the following human cancer cells lineage: HL-60 (pro-myelocytic leukemia), NCIH-292 (lung carcinoma), and HEP-2 (laryngeal carcinoma) obtained from the Rio de Janeiro Cell Bank (RJ-Brazil). For all experiments, 100 µL of tumor cells were plated in 96-well plates (6 × 10^4 cells/cm^2 for adherent cells or 9 × 10^4 cells/cm^2 for leukemia). Tested compounds (0.1–25 μg/mL) dissolved in 1% DMSO (100 µL) were added to each well and incubated for 72 h. Control groups received the same amount of DMSO. After 69 h of treatment, 25 μL of MTT (5 mg/mL) were added. Three hours later, the MTT formazan product was dissolved in 100 μL of DMSO, and absorbance was measured at 595 nm using a multiplate reader (Thermo Plate®, TP Reader, São Paulo, SP, Brasil).
(§3) The obtained data were evaluated by one-way analysis of variance (ANOVA) followed by a Student Newman Keuls post hoc test. The data concerning release percentage of cytoplasmatic enzyme lactate dehydrogenase (LDH) were reported by mean ± standard deviation and evaluated by one-way analysis of variance (ANOVA) followed by a Tukey post hoc test. In all cases differences were considered significant if p < 0.05, the means and respective standard errors were analyzed in the Graph Pad Prism version 5.0 for Windows software (GraphPad Software Incorporated, San Diego, CA, USA).

| SMILES | IC50 |
| --- | --- |
| O=C(NCCc1ccccc1)c1ccccc1O [Rip-C, 2-Hydroxy-N-phenethylbenzamide] | 7.3 µg/mL (≈ 30.3 µM) |

system: HL-60 (pro-myelocytic leukemia); test: Cytotoxicity against tumor cell lines (MTT); assay type: cell-based; details: Homo sapiens, 72 h, 95% confidence interval in brackets, read-out: IC50 values and confidence intervals, HL-60
Procedure: as §2, §3

| SMILES | IC50 |
| --- | --- |
| O=C(NCCc1ccccc1)c1ccccc1O [Rip-C, 2-Hydroxy-N-phenethylbenzamide] | 3.3 µg/mL (≈ 13.7 µM) |

system: NCIH-292 (lung carcinoma); test: Cytotoxicity against tumor cell lines (MTT); assay type: cell-based; details: Homo sapiens, NCI-H292, 72 h, 95% confidence interval in brackets, read-out: IC50 values and confidence intervals, NCIH-292
Procedure: as §2, §3

| SMILES | IC50 |
| --- | --- |
| O=C(NCCc1ccccc1)c1ccccc1O [Rip-C, 2-Hydroxy-N-phenethylbenzamide] | > 25 µg/mL |

system: murine peritoneal macrophages RAW 264.7; test: Cytotoxicity assay on RAW 264.7 (LDH release); assay type: cell-based; details: 25 µg/mL, RAW 264.7
Procedure: Murine peritoneal macrophages of the cell line RAW 264.7 were obtained from the American Type Culture Collection (ATCC, Rockville, MD, USA), and cultured at 37 °C with CO2 at 5% in DMEM-F12 supplemented with 10% fetal bovine serum (FBS; Hyclone^TM, Logan, UT, USA) and gentamicin (50 μg/mL). RAW 264.7 cells (5 × 10^5 cells/mL) were cultured and incubated for 24 h with the riparins A, B, C, D, E and F at the final concentration of 25 µg/mL […]. The cytotoxicity assay was performed by LDH assay. The release of LDH (cytoplasmic lactate dehydrogenase enzyme) was determined using 50 μL of culture supernatant with 100 μL of LDH substrate plus and 5 μL ferric alum (5 mg/mL), at 37 °C for 3 min. Then, 100 μL of the NAD solution and phenazine methosulphate were added to the mixture, maintaining the temperature at 37 °C for 5 min (Labrax Commercial Kit, Clontech, Palo Alto, CA, USA). LDH is an oxidoreductase which catalyzes the interconversion of lactate and pyruvate and, for being a stable cytosolic enzyme, after damage to cell membrane it is released in the cellular environment and because of this LDH is an indirect indicator of cytotoxicity. LDH concentration was determined by colorimetry at 492 nm. The specific release of LDH was calculated as percentage of the controls (not treated cells as negative control and cells treated with 1%Triton X-100 as positive control).
as §3

| SMILES | LDH % Release |
| --- | --- |
| O=C(NCCc1ccccc1)c1ccccc1O [Rip-C, 2-Hydroxy-N-phenethylbenzamide] | 87.35% |

same assay, conditions: 25 µg/mL, RAW 264.7; listed as riparin C

| SMILES | LDH % Release |
| --- | --- |
| O=C(NCCc1ccccc1)c1ccccc1O [Rip-C, 2-Hydroxy-N-phenethylbenzamide] | greater than 80% |

system: tumor cells lines (leukemia and lung and laryngeal carcinoma); test: Cytotoxicity on tumor cell lines, summary statements over the lines (MTT); assay type: cell-based; details: Homo sapiens; leukemia and lung and laryngeal carcinoma; read-out: IC50 values on neoplastic cells (range over cell lines)
Procedure: as §1, §2

| SMILES | IC50 |
| --- | --- |
| O=C(NCCc1ccccc1)c1ccccc1O [Rip-C, 2-Hydroxy-N-phenethylbenzamide] | 1.9 to 11.4 µg/mL (≈ 7.87 to 47.2 µM) |

same assay, conditions: Homo sapiens; tumor cells lines; cytotoxicity samples tested at 25 µg/mL; read-out: cell growth inhibition rates

| SMILES | inhibition at 25 µg/mL |
| --- | --- |
| O=C(NCCc1ccccc1)c1ccccc1O [Rip-C, 2-Hydroxy-N-phenethylbenzamide] | > 70% |

system: not given; test: not given; details: not given

| SMILES | melting point |
| --- | --- |
| O=C(NCCc1ccccc1)c1ccccc1O [Rip-C, 2-Hydroxy-N-phenethylbenzamide] | 95 °C |
